Source: patent publication US12285448B2, “Bifidobacterium breve capable of relieving rheumatoid arthritis and application thereof” (Jiangnan University, priority 2020, dated 2025)

Columns and labels:
Type in all cases: in vivo, Wistar rats
IL-1β = test: Level of IL-1β in the serum of rats with rheumatoid arthritis (ELISA); details: four weeks after booster immunization; model group 835 ng/L, normal group 143 ng/L
Experimental: (§1) MRS liquid media (containing 0.05 g/100 mL cysteine) were respectively inoculated with the B. breve CCFM1078 obtained in Example 1 and LGG and anaerobically cultured at 37° C. for 18 h, and then transferred into fresh MRS liquid media (containing 0.05 g/100 mL cysteine) and cultured at same conditions for 24 h. Bacteria were centrifuged at 6000 g for 15 min, washed with 0.9 g/100 mL normal saline, and centrifuged again at 6000 g for 10 min to obtain the bacteria. The bacteria of the B. breve CCFM1078 and the LGG were resuspended to a cell concentration of 5×10^9 CFU/mL with sterile normal saline with a concentration of 0.9 g/100 mL, and bacterial solutions containing the B. breve CCFM1078 and the LGG were obtained.
(§2) 60 7-week-old SPF (Specific Pathogen Free) female Wistar rats were raised at a room temperature of 22-24° C., a humidity of 40-60%, and an alternation of 12 h/12 h day and night. After being raised for 1 week under the condition of ad libitum, the rats were randomly divided into 5 groups with 12 rats in each group. […]
(§3) Four weeks after the booster immunization, blood was collected and the rats were sacrificed. The rat serum was collected, and the levels of IL-1β and TNFα in the serum of the rats in each group were determined by an ELISA kit.

TNFα = test: Level of TNFα in the serum of rats with rheumatoid arthritis (ELISA); details: four weeks after booster immunization; model group 14 ng/L, normal group 9.8 ng/L
Experimental: as §1, §2, §3

IL-10 = test: Level of IL-10 in the serum of rats with rheumatoid arthritis (ELISA); details: four weeks after booster immunization; model group 1.64 ng/L, normal group 1.59 ng/L
Experimental: as §1
as §2, with “Sixty 7-week-old” for “60 7-week-old”
Four weeks after the booster immunization, blood was collected and the rats were sacrificed. The rat serum was collected, and the level of IL-10 in the serum of the rats in each group were determined by an ELISA kit.

[1] = Content of short-chain fatty acids in the feces of rats with rheumatoid arthritis (GCMS); details: four weeks after booster immunization
Experimental: as §1
(§4) Sixty 7-week-old SPF (Specific Pathogen Free) female Wistar rats were raised at a room temperature of 22-24° C., a humidity of 40-60%, and an alternation of 12 h/12 h day and night. After being raised for 1 week under the condition of ad libitum, the rats were randomly divided into 5 groups with 12 rats in each group. The 5 groups were a normal group, a model group, a drug group administered with methotrexate by gavage, an LGG group administered with LGG by gavage, and a CCFM1078 group administered with B. breve CCFM1078 by gavage.
The experiment was started after the rats were adaptively raised for one week, and lasted for eight weeks. During the two weeks before modelling, each rat in the normal group, the drug group and the model group was administered by gavage with 1.5 mL of sterile normal saline with a concentration of 0.9 g/100 mL per day, each rat in the LGG group was administered by gavage with 1.5 mL of an LGG bacterial solution with a concentration of 5×10^9 CFU/mL per day, and each rat in the CCFM1078 group was administered by gavage with 1.5 mL of a B. breve CCFM1078 bacterial solution with a concentration of 5×10^9 CFU/mL per day. The third week to the fourth week was a modelling period. On the first day of modelling, a bovine type II collagen solution (Chondrex, 20022) and a Freund's incomplete adjuvant (Chondrex, 7002) were mixed in equal volumes and emulsified to form a complete emulsion (the emulsion was prepared for immediate use, and the prepared emulsion was used within 1 h). A rat was anesthetized with isoflurane and immobilized, the whole rat tail root was disinfected with 75% (v/v) alcohol, and then the rat was subjected to primary immunization. In the primary immunization, 0.15 mL of the complete emulsion was accurately pipetted and injected subcutaneously at 1.5 cm from the tail root of the rat. One week later, booster immunization was conducted by the same treatment method, that is, 0.15 mL of the complete emulsion was accurately pipetted and injected subcutaneously at 2.0 cm from the tail root of the rat. The rats in the normal group were injected with only the same volume of sterile normal saline by the same method. […]

[2] = system: rats with rheumatoid arthritis (type II collagen-induced arthritis model); test: Body weight, joint thickness and clinical score of rats with type II collagen-induced arthritis; details: CIA rats
Experimental: A Type II Collagen-induced arthritis (CIA) model is a classic RA animal model. The onset of CIA has many similarities with rheumatoid arthritis (RA), such as synovial hyperplasia, pannus formation, and cartilage destruction. At present, […]. Therefore, in Examples 5-9, a type II collagen-induced arthritis (CIA) model was used as an RA animal model, and LGG was used as a control.
as §1
60 7-week-old SPF (Specific Pathogen Free) female Wistar rats were raised at a room temperature of 22-24° C., a humidity of 40-60%, and an alternation of 12 h/12 h day and night. […]

Th17 cells = test: Proportion of Th17 cells in the mesenteric lymph nodes of rats with rheumatoid arthritis (flow cytometry); details: four weeks after booster immunization; model group 13.97 times the normal group
Experimental: as §1, §4
The experiment was started after the rats were adaptively raised for one week, and lasted for eight weeks. […]

With CN(Cc1cnc2nc(N)nc(N)c2n1)c1ccc(C(=O)N[C@@H](CCC(=O)O)C(=O)O)cc1 [methotrexate, Methotrexate] the “level of IL-1β in the serum” value (IL-1β) was 159 ng/L, the “level of TNFα in the serum” value (TNFα) was 12 ng/L and the “concentration of IL-10 in the serum” value (IL-10) was 1.62 ng/L. The “content of acetic acid in the feces relative to the model group” value [1] was 1.1 times, the “content of butyric acid in the feces relative to the model group” value [1] was 1.3 times and the “content of isobutyric acid in the feces relative to the model group” value [1] was 1.3 times. The “content of pentanoic acid in the feces relative to the model group” value [1] was 1 times, the “content of propionic acid in the feces relative to the model group” value [1] was 1.2 times and the “paw thickness (comparison in words)” value ([2]; FIG. 3) was “significantly lower than that of the rats in the model group and restored to normal in the last week”. The “body weight change (trend)” value ([2]; gavage, after booster immunization, FIG. 2) was “not significant” and the “proportion of Th17 cells in the mesenteric lymph nodes relative to the model group” value (Th17 cells) was 12.7%.
